Test results published in US20120108585A1, “BENZOXAZOLES, BENZTHIAZOLES AND RELATED ANALOGS AS SIRTUIN MODULATORS” (Sirtris Pharmaceuticals, Inc., priority 2008, published 2012).

Target: T1, SIRT1 (Homo sapiens, UniProt Q96EB6)
T1 sequence (Q96EB6 1-747): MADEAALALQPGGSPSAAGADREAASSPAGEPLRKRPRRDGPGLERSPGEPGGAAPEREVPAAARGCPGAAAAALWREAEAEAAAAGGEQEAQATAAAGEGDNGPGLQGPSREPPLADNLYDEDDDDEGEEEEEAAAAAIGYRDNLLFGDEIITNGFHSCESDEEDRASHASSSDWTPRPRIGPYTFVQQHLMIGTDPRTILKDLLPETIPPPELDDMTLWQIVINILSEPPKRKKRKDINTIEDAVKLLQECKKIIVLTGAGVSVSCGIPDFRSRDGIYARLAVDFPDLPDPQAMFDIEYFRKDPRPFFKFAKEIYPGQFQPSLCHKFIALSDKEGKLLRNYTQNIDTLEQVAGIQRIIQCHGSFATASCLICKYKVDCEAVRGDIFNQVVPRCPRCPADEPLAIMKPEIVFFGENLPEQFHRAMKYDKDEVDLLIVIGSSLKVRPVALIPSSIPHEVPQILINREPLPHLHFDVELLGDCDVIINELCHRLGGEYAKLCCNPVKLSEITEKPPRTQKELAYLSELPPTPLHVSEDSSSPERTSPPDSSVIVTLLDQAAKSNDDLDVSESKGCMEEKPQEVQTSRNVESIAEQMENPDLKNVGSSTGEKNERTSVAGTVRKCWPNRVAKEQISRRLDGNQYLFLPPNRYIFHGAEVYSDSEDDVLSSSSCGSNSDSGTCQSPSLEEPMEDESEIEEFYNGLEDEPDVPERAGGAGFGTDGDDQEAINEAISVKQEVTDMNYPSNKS
Assay: mass spectrometry based assay to identify modulators of SIRT1 activity (deacetylation of p53-based acetylated peptide)
Format: biochemical
Conditions: SIRT1 activation, 10 nM SIRT1, 0.5 μM peptide substrate, 120 μM βNAD+, 25 minutes at 25° C.; for Emax: 25 min, read-out: % Fold Act. (percent maximum fold activation)
Excerpt: A mass spectrometry based assay was used to identify modulators of SIRT1 activity. The mass spectrometry based assay utilizes a peptide having 20 amino acid residues as follows: Ac-EE-K(biotin)-GQSTSSHSK(Ac)NleSTEG-K(5TMR)-EE-NH2 (SEQ ID NO: 1) wherein K(Ac) is an acetylated lysine residue and Nle is a norleucine. The peptide is labeled with the fluorophore 5TMR (excitation 540 nm/emission 580 nm) at the C-terminus. The sequence of the peptide substrate is based on p53 with several modifications. In addition, the methionine residue naturally present in the sequence was replaced with the norleucine because the methionine may be susceptible to oxidation during synthesis and purification.
The mass spectrometry assay is conducted as follows: 0.5 μM peptide substrate and 120 μM βNAD^+ is incubated with 10 nM SIRT1 for 25 minutes at 25° C. in a reaction buffer (50 mM Tris-acetate pH 8, 137 mM NaCl, 2.7 mM KCl, 1 mM MgCl2, 5 mM DTT, 0.05% BSA). Test compounds may be added to the reaction as described above. The SirT1 gene is cloned into a T7-promoter containing vector and transformed into BL21(DE3). After the 25 minute incubation with SIRT1, 10 μL of 10% formic acid is added to stop the reaction. Reactions are sealed and frozen for later mass spec analysis. Determination of the mass of the substrate peptide allows for precise determination of the degree of acetylation (i.e. starting material) as compared to deacetylated peptide (product).
A control for inhibition of sirtuin activity is conducted by adding 1 μL of 500 mM nicotinamide as a negative control at the start of the reaction (e.g., permits determination of maximum sirtuin inhibition). A control for activation of sirtuin activity is conducted using 10 nM of sirtuin protein, with 1 μL of DMSO in place of compound, to determine the amount of deacetylation of the substrate at a given timepoint within the linear range of the assay. This timepoint is the same as that used for test compounds and, within the linear range, the endpoint represents a change in velocity.
For the above assay, SIRT1 protein was expressed and purified as follows. The SirT1 gene was cloned into a T7-promoter containing vector and transformed into BL21(DE3). The protein was expressed by induction with 1 mM IPTG as an N-terminal His-tag fusion protein at 18° C. overnight and harvested at 30,000×g. Cells were lysed with lysozyme in lysis buffer (50 mM Tris-HCl, 2 mM Tris[2-carboxyethyl]phosphine (TCEP), 10 μM ZnCl2, 200 mM NaCl) and further treated with sonication for 10 min for complete lysis. The protein was purified over a Ni-NTA column (Amersham) and fractions containing pure protein were pooled, concentrated and run over a sizing column (Sephadex S200 26/60 global). The peak containing soluble protein was collected and run on an Ion-exchange column (MonoQ). Gradient elution (200 mM-500 mM NaCl) yielded pure protein. This protein was concentrated and dialyzed against dialysis buffer (20 mM Tris-HCl, 2 mM TCEP) overnight. The protein was aliquoted and frozen at −80° C. until further use.
Sirtuin modulating compounds that activated SIRT1 were identified using the assay described above and are shown below in Table 1. The EC1-5 values for the activating compounds are represented by A (EC1-5<1.0 uM), B (EC1-5 1-25 uM), C (EC1-5>25 uM). The percent maximum fold activation is represented by A (Fold activation>150%) or B (Fold Activation<150%).

Structure (SMILES) | Emax [%] | EC1.5
O=C(Nc1nccs1)c1cccc2oc(-c3ccc(F)cc3C(F)(F)F)nc12 [Compound 143] | < 150 | B (EC1-5 1-25 uM)
O=C(Nc1nc(CN2CCOCC2)cs1)c1cccc2oc(-c3ccc(F)cc3C(F)(F)F)nc12 [Compound 145] | > 150 | B (EC1-5 1-25 uM)
O=C(Nc1cccc(CN2CCOCC2)n1)c1cccc2oc(-c3ccc(F)cc3C(F)(F)F)nc12 [Compound 146] | > 150 | A (EC1-5<1.0 uM)
O=C(Nc1nccs1)c1cccc2oc(-c3cc(F)ccc3C(F)(F)F)nc12 [Compound 147] | < 150 | C (EC1-5>25 uM)
O=C(Nc1nc(CN2CCOCC2)cs1)c1cccc2oc(-c3cc(F)ccc3C(F)(F)F)nc12 [Compound 149] | > 150 | A (EC1-5<1.0 uM)
O=C(Nc1cccc(CN2CCOCC2)n1)c1cccc2oc(-c3cc(F)ccc3C(F)(F)F)nc12 [Compound 150] | > 150 | A (EC1-5<1.0 uM)
O=C(Nc1cccc(N2CCOCC2)n1)c1cccc2sc(-c3cccc(C(F)(F)F)c3)nc12 [Compound 151] | < 150 | A (EC1-5<1.0 uM)
O=C(Nc1cccc(N2CCCC2)n1)c1cccc2sc(-c3cccc(C(F)(F)F)c3)nc12 [Compound 153] | > 150 | B (EC1-5 1-25 uM)
O=C(Nc1ccnc(N2CCCC2)c1)c1cccc2sc(-c3cccc(C(F)(F)F)c3)nc12 [Compound 154] | > 150 | A (EC1-5<1.0 uM)

Results, then the compound that gave them:

Emax [%] | EC1.5 | Structure (SMILES)
> 150 | A (EC1-5<1.0 uM) | O=C(Nc1cccc(CN2CCOCC2)n1)c1cccc2oc(-c3ccccc3C(F)(F)F)nc12 [Compound 140]
> 150 | B (EC1-5 1-25 uM) | O=C(Nc1nccs1)c1cccc2oc(-c3ccccc3OC(F)(F)F)nc12 [Compound 141]
> 150 | B (EC1-5 1-25 uM) | O=C(Nc1ccccn1)c1cccc2oc(-c3ccccc3OC(F)(F)F)nc12 [Compound 142]
< 150 | B (EC1-5 1-25 uM) | O=C(Nc1ccccn1)c1cccc2oc(-c3ccc(F)cc3C(F)(F)F)nc12 [Compound 144]
< 150 | C (EC1-5>25 uM) | O=C(Nc1ccccn1)c1cccc2oc(-c3cc(F)ccc3C(F)(F)F)nc12 [Compound 148]
